In patent US6875760B2 (Novo Nordisk A/S, priority 1999, dated 2005):

Columns and labels:
[1] = target: T1, cloned human glucagon receptor (Homo sapiens, UniProt P47871); assay: Glucagon Binding Assay (I); details: plasma membranes of BHK cells expressing the receptor, 125I-glucagon tracer; read-out: Glu Bd Assay (I) IC50
T1 construct: expressed in transfected cells; plasma membrane preparation
Description: Binding of compounds to the glucagon receptor was determined in a competition binding assay using the cloned human glucagon receptor.
Receptor binding was assayed using cloned human receptor (Lok et al., Gene 140, 203-209 (1994)). The receptor inserted in the pLJ6′ expression vector using EcoRI/SSt1 restriction sites (Lok et al.) was expressed in a baby hamster kidney cell line (A3 BHK 570-25).
Plasma membranes were prepared by growing cells to confluence, detaching them from the surface and resuspending the cells in cold buffer (10 mM tris/HCl, pH 7.4 containing 30 mM NaCl, 1 mM dithiothreitol, 5 mg/L leupeptin (Sigma), 5 mg/L pepstatin (Sigma), 100 mg/L bacitracin (Sigma) and 15 mg/L recombinant aprotinin (Novo Nordisk A/S)), homogenization by two 10-s bursts using a Polytron PT 10-35 homogenizer (Kinematica), and centrifugation upon a layer of 41 w/v % sucrose at 95.000×g for 75 min. The white band located between the two layers was diluted in buffer and centrifuged at 40.000×g for 45 min. The precipitate containing the plasma membranes was suspended in buffer and stored at −80° C. until use. Glucagon was iodinated according to the chloramine T method (Hunter and Greenwood, Nature 194, 495 (1962)) and purified using anion exchange chromatography (Jørgensen et al., Hormone and Metab. Res. 4, 223-224 (1972). The specific activity was 460 μCi/μg on the day of iodination. Tracer was stored at −18° C. in aliquots and were used immediately after thawing.
Binding assays were carried out in triplicate in filter microtiter plates (MADV N65, Millipore). The buffer used in this assay was 50 mM HEPES, 5 mM EGTA, 5 mM MgCl2, 0.005% tween 20, pH 7.4. Glucagon was dissolved in 0.05 M HCl, added an equal amount (w/w) of HSA and freeze-dried. On the day of use, it was dissolved in water and diluted in buffer to the desired concentrations.
Test compounds were dissolved and diluted in DMSO. 140 μL buffer, 25 μL glucagon or buffer, and 10 μL DMSO or test compound were added to each well. Tracer (50.000 cpm) was diluted in buffer and 25 μL were added to each well. 1-4 μg freshly thawed plasma membrane protein diluted in buffer was then added in aliquots of 25 μL to each well. Plates were incubated at 30° C. for 2 hours. Non-specific binding was determined with 10^−6 M of glucagon. Bound tracer and unbound tracer were then separated by vacuum filtration (Millipore vacuum manifold). The plates were washed with 2×100 μL buffer/well. The plates were air dried for a couple of hours, whereupon the filters were separated from the plates using a Millipore Puncher. The filters were counted in a gamma counter.

[2] = target: T2, human glucagon receptor (Homo sapiens, UniProt P47871); assay: Glucagon Binding Assay (III); details: Glu Bd Assay (III) IC50 (nM), BHK cell membranes, WGA SPA beads, 125I-glucagon
T2 construct: expressed in transfected cells; host or cells: BHK (baby hamster kidney) cells
How it was run: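 Non-specific binding was set with 500 nM glucagon in this SPA-type binding assay using WGA beads. The receptor source was a membrane preparation, kept on ice or at 4 °C, from BHK cells transfected with the human receptor. Scintillation counts were taken after 4 hours of shaking and 8–48 hours of settling.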

T1 sequence (P47871 26-477): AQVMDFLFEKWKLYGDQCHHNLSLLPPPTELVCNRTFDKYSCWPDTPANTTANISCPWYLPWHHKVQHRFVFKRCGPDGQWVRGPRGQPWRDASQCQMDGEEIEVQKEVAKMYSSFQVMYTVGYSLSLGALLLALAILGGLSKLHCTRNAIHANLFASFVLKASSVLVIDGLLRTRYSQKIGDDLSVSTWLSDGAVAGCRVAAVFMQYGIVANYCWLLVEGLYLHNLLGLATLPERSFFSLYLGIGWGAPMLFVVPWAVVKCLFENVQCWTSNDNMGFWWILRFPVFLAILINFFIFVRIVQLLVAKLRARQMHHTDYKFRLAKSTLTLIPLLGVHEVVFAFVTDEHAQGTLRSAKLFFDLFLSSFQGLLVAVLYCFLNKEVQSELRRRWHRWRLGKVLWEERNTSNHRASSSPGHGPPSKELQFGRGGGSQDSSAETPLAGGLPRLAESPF
T2 sequence (P47871 26-477): as above

Which IC50 [1] does the source give for CCCCC(CC)CN(Cc1ccc(C(=O)NCCC(=O)O)cc1)C(=O)Nc1ccc(-c2ccccc2)cc1 (stereo not drawn) [Example 10, 3-{4-[3-Biphenyl-4-yl-1-(2-ethylhexyl)ureidomethyl]benzoylamino}propionic acid] here?
Its IC50 is 42 nM.

Which IC50 [1] does the source give for CC(C)(C)C1CCC(N(Cc2ccc(C(=O)NCCC(=O)O)cc2)C(=O)Nc2ccc(OC(F)(F)F)cc2)CC1 (stereo not drawn) [Example 11, 3-{4-[1-(4-tert-Butylcyclohexyl)-3-(4-trifluoromethoxyphenyl)ureidomethyl]benzoylamino}propionic acid] here?
Its IC50 is 27 nM.

For CC(C)(C)C1CCC(N(Cc2ccc(C(=O)NCCC(=O)O)cc2)C(=O)Nc2ccc(-c3ccccc3)cc2)CC1 (stereo not drawn) [Example 12, 3-{4-[3-Biphenyl-4-yl-1-(4-tert-butylcyclohexyl)ureidomethyl]benzoylamino}propionic acid], which IC50 [1] is on record?
The IC50 was 20 nM.

With CC(C)(C)C1CCC(N(Cc2ccc(C(=O)NCCC(=O)O)cc2)C(=O)Nc2cccc(C(F)(F)F)c2)CC1 (stereo not drawn) [Example 13, 3-{4-[1-(4-tert-Butylcyclohexyl)-3-(3-trifluoromethylphenyl)ureidomethyl]benzoylamino}propionic acid] as the molecule, how does the IC50 [1] read?
Its IC50 is 78 nM.

What does the source list for CC(C)(C)[C@H]1CC[C@H](N(Cc2ccc(C(=O)NCCC(=O)O)cc2)C(=O)Nc2ccc(OC(F)(F)F)cc2)CC1 [Example 92, 3-{4-[1-(4-trans-tert-Butylcyclohexyl)-3-(4-trifluoromethoxyphenyl)ureidomethyl]benzoylamino}propionic acid]?
IC50 [2]: 47 nM; melting point: 152 to 154 °C
